Laboratory results taken from publication PMC12389711, “Study on the Excretion of a New Antihypertensive Drug 221s (2,9) in Rats” (Pharmaceuticals, 2025).
Where two headings read alike, the source gives them in different places.

Tests used:
[1] = design: method as in PMID 23607051; conditions: cited from earlier work
[2] = Excretion study of unchanged drug in urine, feces and bile after oral administration (UPLC-MS/MS); format: in vivo, Sprague-Dawley rats; conditions: 30 mg/kg oral; for dose excreted: male, Sprague-Dawley, rat, at 72 h
Method: According to previous data, analytical separation was performed using an ultra-performance liquid chromatography-tandem mass spectrometry (UPLC-MS/MS) platform comprising a Waters ACQUITY UPLC H-Class (Waters, Milford, CT, USA) system coupled to an AB Sciex Triple Quad 6500 mass spectrometer (AB Sciex, Boston, MA, USA). Chromatographic resolution was achieved on a Waters ACQUITY UPLC BEH C18 column (1.7 μm, 2.1 × 50 mm) maintained at 40 °C. The mobile phase system incorporated two components: solvent A (0.02% formic acid and 5 mM NH4F in deionized water) and solvent B (acetonitrile), delivered at 0.2 mL/min with a 10 μL injection volume. The gradient program was configured as follows: 55% solvent A (0.0–0.6 min), 5% solvent A (0.6–2.5 min), followed by re-equilibration at 55% solvent A (2.5–5.0 min).
Mass spectrometric detection utilized positive electrospray ionization (ESI+) in MRM mode, monitoring precursor-to-product ion transitions at m/z 525.1→389.1 (221s (2,9)) and 357.0→220.9 (IS). Instrument parameters were optimized as follows: curtain gas 25 psi, ion source temperature 500 °C, GS1/GS2 pressures 50/40 psi, ion spray voltage 5 kV, and collision gas pressure 10 psi. Compound-dependent parameter settings included decluttering potential (DP), entrance potential (EP), collision cell exit potential (CXP), and collision energy (CE) of 160/10/5/63 V for 221s (2,9) and 70/10/5/20 V for IS. Data processing was executed using Analyst software (v1.6.3).
Six male Sprague-Dawley (SD) rats aged 8–10 weeks (body weight: 220–250 g) were individually housed in metabolic cages. Following a 12 h fasting period with free access to water, baseline urinary and fecal samples were collected as blank controls prior to drug administration. Samples of urine and feces were collected from 0–4 h, 4–8 h, 8–12 h, 12–24 h, 24–36 h, 36–48 h, 48–60 h, 60–72 h, and 72–84 h post-administration of 221s (2,9) with an oral dosage of 30 mg/kg. Urine samples were quantitatively measured for volume before storage at −80 °C while fecal samples were dried, pulverized, and weighed prior to preservation at −80 °C.
Six male SD rats were fasted for 12 h prior to drug administration, with free access to water. After being anesthetized with isoflurane, the rats were positioned supine on surgical platforms for common bile duct cannulation. Blank bile samples were collected following stabilization of bile flow. Following oral gavage of 30 mg/kg 221s (2,9), bile samples were sequentially collected during 0–2 h, 2–4 h, 4–8 h, 8–12 h, 12–24 h, 24–36 h, 36–48 h, and 48–72 h intervals. All biliary specimens were volumetrically measured and cryopreserved at −80 °C for subsequent analysis. Hydration maintenance was ensured through intraperitoneal administration of physiological saline during experimental procedures.
A total of 10 μL of IS (1 μg/mL) was added to each urinary sample (100 μL), followed by the addition of three volumes of acetonitrile. The mixtures were vortexed and centrifuged twice. Then, the supernatants were concentrated, lyophilized and reconstituted in 100 μL of acetonitrile. The supernatants were subjected to instrumental analysis after final centrifugation.
Fecal samples (100 mg) were homogenized with three volumes of saline via ultrasonication for 10 min. Then, 10 μL of IS (1 μg/mL) was added, before adding three volumes of acetonitrile. […] After vortexing and dual centrifugation, the supernatant was concentrated, lyophilized, and reconstituted in 100 μL of acetonitrile. The supernatants were subjected to instrument for analysis after final centrifugation.
Biliary samples (100 μL) were precisely aliquoted and added with 10 μL IS (1 μg/mL). Following homogenization, three volumes of acetonitrile were added to precipitate impurities. After vortexing and centrifuging twice, the supernatant was concentrated, lyophilized, and reconstituted in 100 μL of acetonitrile. […]

ACE = ACE content in murine serum, cerebral tissue and renal compartments (preliminary data); format: in vivo; conditions: cerebral tissue, renal compartments
[3] = test system: spontaneously hypertensive rats (SHR); experiment: Serum creatinine and renal NOX2 expression in SHR; format: in vivo, rat
[4] = Stability in rat urine, feces and bile matrices (QC samples); format: in vitro ADME
Method: The stability of 221s (2,9) in rat urine, feces, and bile matrices was evaluated using QC samples at three concentration levels (10, 1000, and 1600 ng/mL) across six replicates under four conditions per matrix: three freeze–thaw cycles, short-term storage (room temperature, 2 h), long-term storage (−80 °C, 30 days), and autosampler rack storage (4 °C, 24 h). Stability was quantified by comparing post-storage concentrations (normalized to freshly prepared QC samples analyzed in the same batch) with nominal values, with deviations ≤15% considered acceptable. Dilution reliability was assessed by 5-fold dilution of QC samples (1000/1600 ng/mL) in each matrix using blank rat plasma. Dilution accuracy was verified by comparing measured concentrations (post-dilution factor correction) to nominal values, with acceptable criteria defined as ≤15% relative error (RE) and ≤15% relative standard deviation (RSD).

[5] = test system: spontaneously hypertensive rats (SHR); design: method as in PMID 37446639; conditions: cited from earlier work
mice = test system: mice; design: method as in doi:10.19803/j.1672-8629.20220529; conditions: cited from earlier work
[6] = test system: angiotensin II (Ang II) and angiotensin-converting enzyme (ACE); design: method as in PMID 37446639; conditions: SHR; cited from earlier work

SMILES: CC1(C)C2CCC1(C)C(OC(=O)c1cc(O)c(O)c(O)c1)C2 (stereo not drawn) [bornyl gallate]
- tissue distribution [1]: pronounced renal accumulation alongside measurable brain distribution

SMILES: CC(NC(=O)C(O)Cc1ccc(O)c(O)c1)C(=O)N1CCCC1C(=O)OC1CC2CCC1(C)C2(C)C (stereo not drawn) [221s (2,9)]
- cumulative fecal output ([2]; feces, at 48 h, rats, unchanged drug): 36,726.31 ± 5507 ng
- fecal excretion rate ([2]; feces, between 4 and 8 h, rats, unchanged drug): 7994.29 ± 953.75 ng/h
- dose excreted ([2]; bile, bile duct cannulated rats, read-out: recovery of unchanged drug in bile (accumulative excretion rate, % of administered dose)): 0.00044 ± 2e-05%
- dose excreted ([2]; feces, rats, read-out: recovery of unchanged drug in feces (accumulative excretion rate, % of administered dose)): 0.73 ± 0.069%
- dose excreted ([2]; urine, rats, read-out: recovery of unchanged drug in urine (accumulative excretion rate, % of administered dose)): 0.02 ± 0.021%
- total recovery of unchanged drug across all matrices (% of administered dose) ([2]; urine + feces + bile, over 72 h, rats): below 1%
- peak urinary excretion rate ([2]; urine, at 8 h post-dosing, rats, unchanged drug): 138.81 ± 15.56 ng/h
- cumulative urinary excretion ([2]; urine, plateau by 48 h, rats, unchanged drug): 1479.81 ± 155.7 ng
- ACE content (ACE): reduces ACE content
- decrease of serum creatinine level ([3]; p < 0.01): 38.99%
- downregulation of renal NOX2 expression ([3]; p < 0.05): 16.23%
- Stability RE (%) ([4]; bile, autosampler rack (4 °C) for 24 h, spiked 10 ng/mL): −4.4%
- Stability RE (%) ([4]; bile, autosampler rack (4 °C) for 24 h, spiked 1000 ng/mL): −3.2%
- Stability RE (%) ([4]; bile, autosampler rack (4 °C) for 24 h, spiked 1600 ng/mL): −3.8%
- Stability RE (%) ([4]; bile, room temperature for 2 h, spiked 10 ng/mL): −5.2%
- Stability RE (%) ([4]; bile, room temperature for 2 h, spiked 1000 ng/mL): −4.5%
- Stability RE (%) ([4]; bile, room temperature for 2 h, spiked 1600 ng/mL): 5.1%
- Stability RE (%) ([4]; bile, three freeze/thaw cycles, spiked 10 ng/mL): −8.4%
- Stability RE (%) ([4]; bile, three freeze/thaw cycles, spiked 1000 ng/mL): −4.1%
- Stability RE (%) ([4]; bile, three freeze/thaw cycles, spiked 1600 ng/mL): 4.2%
- Stability RE (%) ([4]; bile, −80 °C for 30 days, spiked 10 ng/mL): −3.1%
- Stability RE (%) ([4]; bile, −80 °C for 30 days, spiked 1000 ng/mL): 1.5%
- Stability RE (%) ([4]; bile, −80 °C for 30 days, spiked 1600 ng/mL): 3.4%
- Stability RE (%) ([4]; feces, autosampler rack (4 °C) for 24 h, spiked 10 ng/mL): −4.9%
- Stability RE (%) ([4]; feces, autosampler rack (4 °C) for 24 h, spiked 1000 ng/mL): −2.2%
- Stability RE (%) ([4]; feces, autosampler rack (4 °C) for 24 h, spiked 1600 ng/mL): 4.6%
- Stability RE (%) ([4]; feces, room temperature for 2 h, spiked 10 ng/mL): −6.7%
- Stability RE (%) ([4]; feces, room temperature for 2 h, spiked 1000 ng/mL): −3.6%
- Stability RE (%) ([4]; feces, room temperature for 2 h, spiked 1600 ng/mL): −4.7%
- Stability RE (%) ([4]; feces, three freeze/thaw cycles, spiked 10 ng/mL): −5.3%
- Stability RE (%) ([4]; feces, three freeze/thaw cycles, spiked 1000 ng/mL): −4.8%
- Stability RE (%) ([4]; feces, three freeze/thaw cycles, spiked 1600 ng/mL): −3.2%
- Stability RE (%) ([4]; feces, −80 °C for 30 days, spiked 10 ng/mL): −6.4%
- Stability RE (%) ([4]; feces, −80 °C for 30 days, spiked 1000 ng/mL): −5.3%
- Stability RE (%) ([4]; feces, −80 °C for 30 days, spiked 1600 ng/mL): 2.8%
- degradation in urinary/fecal/biliary samples ([4]; room temperature 2 h, three freeze-thaw cycles, −80 °C 30 days, 4 °C autosampler 24 h): no significant degradation
- Stability RE (%) ([4]; urine, autosampler rack (4 °C) for 24 h, spiked 10 ng/mL): −7.3%
- Stability RE (%) ([4]; urine, autosampler rack (4 °C) for 24 h, spiked 1000 ng/mL): −6.3%
- Stability RE (%) ([4]; urine, autosampler rack (4 °C) for 24 h, spiked 1600 ng/mL): 3.9%
- Stability RE (%) ([4]; urine, room temperature for 2 h, spiked 10 ng/mL): −12.5%
- Stability RE (%) ([4]; urine, room temperature for 2 h, spiked 1000 ng/mL): −1.5%
- Stability RE (%) ([4]; urine, room temperature for 2 h, spiked 1600 ng/mL): 3.4%
- Stability RE (%) ([4]; urine, three freeze/thaw cycles, spiked 10 ng/mL): −9.4%
- Stability RE (%) ([4]; urine, three freeze/thaw cycles, spiked 1000 ng/mL): −6.4%
- Stability RE (%) ([4]; urine, three freeze/thaw cycles, spiked 1600 ng/mL): −2.6%
- Stability RE (%) ([4]; urine, −80 °C for 30 days, spiked 10 ng/mL): −8.7%
- Stability RE (%) ([4]; urine, −80 °C for 30 days, spiked 1000 ng/mL): −5.4%
- Stability RE (%) ([4]; urine, −80 °C for 30 days, spiked 1600 ng/mL): −5.5%
- antihypertensive efficacy compared with captopril [5]: comparable to that of captopril
- reduction of diastolic blood pressure [5]: 35 mmHg
- reduction of systolic blood pressure [5]: 50 mmHg
- effects on body weight, dietary intake, histopathological parameters of liver, lungs and kidneys (mice; at 3000 mg/kg oral gavage): no substantial effects
- acute toxicity (mice; oral gavage): no significant acute toxicity
- maximum tolerated dose (mice; oral gavage): 3000 mg/kg
- serum level of angiotensin II (Ang II) [6]: significantly reduced
- serum level of angiotensin-converting enzyme (ACE) [6]: significantly reduced
